“And” between values parts separate entries of the source, which are not always exact repeats. Equal values may be shown once.
What follows are compounds tested on P. falciparum 3D7 growth, pLDH absorbance (assay: blood-stage malaria parasite growth potency – strain 3D7, dose response (AID 2305)).

| Compound | IC50 |
| --- | --- |
| CCOc1ccc(C(C)NC(=O)Nc2ccccc2)cc1OCC (stereo not given) | 900 nM |
| Cc1cc(Nc2ncc(C#N)c(Nc3ccccc3C(N)=O)n2)ccc1N1CCN(C)CC1 | 10 nM |
| CC(C)COc1ccc(Cl)cc1Cc1nc(-c2nc3ccc(CN4CCN(C)CC4)cc3[nH]2)co1 | 910 nM |
| OC(CNC1CCCCC1)Cn1c2ccccc2c2ccccc21 (stereo not given) | 990 nM |
| NC(N)=NN=Cc1c2ccccc2c(Cl)c2ccc(Cl)cc12 | 230 nM |
| Cc1nc(-c2ccc(C#N)cc2)sc1C(=O)NCCCCN1CCC(c2ccc3c(c2OCCO)CCCC3)CC1 | 850 nM |
| CC1(C)[C@H]2C=C(CN3CCC(NC(=O)Nc4ccc(Cl)c(Cl)c4)CC3)[C@@H]1CC2 | 760 nM |
| CCCCc1cc(NCc2ccncc2)nc(Nc2ccccc2)n1 | 840 nM |
| CCCCCN1CCCC(NS(=O)(=O)c2ccc(C(=O)Nc3cccc(C(F)(F)F)c3)cc2)C1 (stereo not given) | 790 nM |
| FC(F)(F)c1ccc(NC(=S)N2CCC(CCN3CCC(c4c[nH]c5ccccc45)CC3)CC2)cc1 | 890 nM |
| CC(=O)Nc1nc(C)c(-c2csc(Nc3ccc(Cl)cc3)n2)s1 | 260 nM |
| CCN(CC)CCN(CCCc1ccc(-c2ccc(C(F)(F)F)cc2)cc1)C(=O)Cn1c(CCc2cccc(F)c2F)nc(=O)c2c1CCC2 | 830 nM |
| c1ccc(N2CCN(c3cc(-c4cccnc4)nc(-c4ccncc4)n3)CC2)nc1 | 760 nM |
| Cn1c(=O)n(C)c2cc(CNCCNc3ccnc4cc(Cl)ccc34)ccc21 | 140 nM |
| CCC1CN2CCc3c([nH]c4ccccc34)C2CC1CC1=NCCc2c1[nH]c1ccc(OC)cc21 (stereo not given) | 640 nM |
| COc1cc(NCC(C)CNCc2cn(Cc3ccccc3)c3ccccc23)nc2ccccc12 (stereo not given) | 630 nM |
| Cc1ccc2nc(N(CCCn3ccnc3)C(=O)C=Cc3cccs3)sc2c1 | 1390 nM |
| CCOc1cc(C(=O)NC2CCN(Cc3ccccc3)C2)ccc1-c1nc2ccc(Cl)cc2[nH]1 (stereo not given) | 1010 nM |
| O=C(NCc1ccc(Cl)c(Cl)c1)c1ccc(C2CCN(Cc3ccc4nc[nH]c4c3)CC2)cc1 | 960 nM |
| CC(=O)Nc1ccc(CN2CCC(CNC(=O)c3cc(-c4cccc(C(F)(F)F)c4)cs3)C2)cc1 (stereo not given) | 1100 nM |
| COc1ccc(C(=O)CCC(=O)N(Cc2ccc(-c3ccc(CNCCc4ccc(S(C)(=O)=O)cc4)cn3)cc2)Cc2ccc3c(c2)OCO3)cc1F | 940 nM |
| Oc1ccc2ncnc(Nc3ccc(OCc4cccc(F)c4)c(Cl)c3)c2c1 | 990 nM |
| O=S(=O)(Nc1cccc(CCN2CCC(N3CCCCC3)CC2)c1)c1ccccc1C(F)(F)F | 1150 nM |
| CNC(=O)c1cnc(Nc2ccc(N3CCN(C)CC3)cc2)nc1Nc1ccccc1OC | 930 nM |
| COc1ccc2c(NN=Cc3ccc(OC)c4ccccc34)cc(C)nc2c1 | 600 nM |

| Compound | IC50 |
| --- | --- |
| CC(C)CCNCc1c(O)ccc2ccccc12 | 1670 nM |
| CC(CN1CCN(C)CC1)C(=O)Nc1ccc(-c2ccc(-c3nc4ccccc4[nH]3)s2)cc1 (stereo not given) | 640 nM |
| COc1ccc(N2CCN(c3nc(N)c4cc(OC)c(OC)cc4n3)CC2C)cc1 (stereo not given) | 1420 nM |
| CC(C)(C)c1ccc(N2C(N)=NC(N)=NC2(C)C)cc1 | 30 nM |
| O=C(NCCCCCN1CCCN(C(=O)Nc2ccc(F)c(C(F)(F)F)c2)CC1)[C@@H]1C[C@H]1c1ccc(Cl)c(Cl)c1 | 1030 nM |
| Cc1cccc(N2CCN(C3CCC(NC(=O)c4cc5ccccc5[nH]4)CC3)CC2)c1C (stereo not given) | 610 nM |
| CC(C)CC(C)NC(=O)C1Cc2c([nH]c3cc(Cl)ccc23)C2(CCN(CCc3ccccc3)CC2)N1 (stereo not given) | 810 nM |
| COc1ccc(CCNCCCCCCNCCCc2ccc(Cl)cc2)cc1OC | 950 nM |
| CCC1CN2CCc3c([nH]c4ccccc34)[C@@H]2C[C@@H]1CC1NCCc2cc(OC)c(OC)cc21 (stereo not given in full) | 860 nM and 840 nM |
| c1ccc2c(NCCCCCCNc3c4c(nc5ccccc35)CCCC4)c3c(nc2c1)CCCC3 | 200 nM |
| Cc1cccc2[nH]c(-c3cccc(-c4ccc(CNCCc5ccncc5)cc4)c3)nc12 | 120 nM |
| Cc1ccccc1C1CCN(C2CCC(NC(=O)c3cncc(-c4ccccc4)c3)CC2)CC1 (stereo not given) | 930 nM |
| OCCNc1nc(Nc2ccc(Cl)cc2)nc2ccccc12 | 710 nM |
| CS(=O)(=O)Nc1ccc(OCCCCCCOc2ccc(NS(C)(=O)=O)cc2)cc1 | 490 nM |
| COc1ccc(Cn2c(Nc3cccc(C(F)(F)F)c3)nc3cc(C(=O)NCCCN(C)C)ccc32)cc1Cl | 910 nM |
| CN(CCCc1c[nH]c2ccccc12)CCC1CCC(NC(=O)/C=C/c2ccc(Cl)c(Cl)c2)CC1 (stereo not given) | 650 nM |
| Fc1ccc2nc(-c3cccc(-c4ccc(CNCCN5CCNCC5)cc4)c3)[nH]c2c1 | 900 nM |
| Cc1ccc(Cn2nc(N3CCNCC3)ccc2=O)cc1NC(=O)Nc1ccc(-c2ccccc2)cc1 | 840 nM |
| COc1ccc(C2N=C(N)N=C(N)N2c2ccc(Cl)cc2)cc1OC (stereo not given) | 1000 nM |
| CC1(C)CC(NCCCCCCCOc2ccc(OCc3ccccc3)cc2)CC(C)(C)N1 | 830 nM |
| COC(=O)c1cc(C(O)CNC(C)CCc2cccc(F)c2)ccc1O (stereo not given) | 1180 nM |
| CC1CN(Cc2ccc(-c3cccc(-c4nc5ccc(F)cc5[nH]4)c3)cc2)CC(C)O1 (stereo not given) | 920 nM |
| COc1ccc(-n2cc(C(=O)c3cc(Br)ccc3O)cc(C#N)c2=O)cc1Cl | 790 nM |
| O=C(Nc1cccc(CN2CCCN(Cc3ccc(O)cc3)CC2)c1)c1ccc2ccccc2c1 | 370 nM |
| COc1ccc(Cn2cncc2CN(CCC(C)C)C(=O)c2ccc(Cl)nc2Cl)cc1 | 1040 nM |

| Compound | IC50 |
| --- | --- |
| CCNc1cc(C)nc(Nc2ccc(C)cc2)n1 | 730 nM |
| NC1CCCN(Cc2cccc(-c3cccc(-c4nc5ccccc5[nH]4)c3)c2)C1 (stereo not given) | 640 nM |
| CCN(CC)CCN(Cc1ccc(-c2ccc(C(F)(F)F)cc2)cc1)C(=O)Cn1cc(CCCc2cccc(F)c2F)c(=O)c2ccccc21 | 1060 nM |
| COCn1ccc2c3c(N)nc(N)nc3ccc21 | 990 nM |
| Clc1ncnc2ncn(Cc3cccc(Br)c3)c12 | 1060 nM |
| Cc1cccc(NC(=O)Nc2cccc(-c3ccc(-c4nc5ccc(C(F)(F)F)cc5[nH]4)cc3)c2)c1 | 900 nM |
| CN(C)c1ccc(C2(c3ccccc3)N=C(N)N(CCCc3ccccc3)C2=O)cc1 (stereo not given) | 970 nM |
| Cc1ccc(C(=O)Nc2ccc(C)c(OC3CCN(CCC(C)C)C3)c2)cc1 (stereo not given) | 790 nM |
| COc1ccc(C(=O)O)cc1OCc1ccccc1 | 820 nM |
| Fc1ccc2nc(-c3ccc(-c4cccc(CN5CCC(CCN6CCCCC6)CC5)c4)cc3)[nH]c2c1 | 140 nM |
| CC(C)CC1c2[nH]c3ccccc3c2CCN1C(=O)CCc1ccccc1 (stereo not given) | 970 nM |
| CC(C)C(=O)Nc1c(F)cc(F)cc1CCc1ccc(O)cc1 | 500 nM |
| N=C(N)CCN(Cc1ccccc1)c1ccc(Cl)cc1 | 260 nM |
| NCC1CCCN1Cc1cccc(-c2cccc(-c3nc4ccc(F)cc4[nH]3)c2)c1 (stereo not given) | 810 nM |
| COc1cc(Cc2cnc(N)nc2N)cc(OCCn2ccccc2=O)c1OC | 770 nM |
| CC(C)C[C@H](NC(=O)[C@H](Cc1ccccc1)NC(=O)CCN1C(=O)COc2ccc(C(=O)O)cc21)C(=O)NC(CC1CCCCC1)C(O)CC(=O)NCCCn1ccnc1 (stereo not given in full) | 970 nM |
| Fc1ccc(Nc2ccnc3cc(-c4cccc(CNCCN5CCOCC5)c4)ccc23)c(Cl)c1 | 140 nM |
| COc1ccc(CCCc2nc(N)nc(N)c2-c2ccc(Cl)cc2)cc1 | 40 nM |
| Cc1cc(N[C@@H](CC(C)C)C(=O)NCc2cccs2)nc(NCCc2cccs2)n1 | 1020 nM |
| CN1CCC(NCc2ccc(-c3cnc(NCc4ccccc4)nc3)cc2)CC1 | 830 nM |
| Nc1c(Cl)cc(C(O)CNCCCCCCOCCc2ccc(O)cc2)cc1Cl (stereo not given) | 730 nM |
| O=C(c1ccc(Cl)cc1)N1CCOC(CCN2CCC(c3ccccc3)CC2)(c2ccc(Cl)c(Cl)c2)C1 (stereo not given) | 240 nM |
| COc1cccc2c(NN=Cc3cccc(F)c3)ccnc12 | 930 nM |
| O=c1nc(C=Cc2ccc(Br)cc2)oc2ccccc12 | 1050 nM |
| COCC(C)n1c(SC(C)C(=O)Nc2cc([N+](=O)[O-])ccc2Cl)nc2ccccc2c1=O (stereo not given) | 230 nM |

| Compound | IC50 |
| --- | --- |
| COc1ccc(NC(=O)NC2CCN(CCCCCNC(=O)/C=C/c3ccc(Cl)c(Cl)c3)C2)c(OC)c1 (stereo not given) | 820 nM |
| N#Cc1ccc2c(c1)CCN(CCC1CCC(NC(=O)/C=C/c3c[nH]c4ccc(F)cc34)CC1)CC2 (stereo not given) | 690 nM |
| Cc1ccc2c(NN=CC=Cc3ccccc3)cc(C)nc2c1 | 1120 nM |
| Nc1ncc(-c2ccc(F)c(Cl)c2)c(N)n1 | 1230 nM |
| Cc1ccnc(NC(=O)c2cc(-c3cccc([N+](=O)[O-])c3)nc3onc(C)c23)c1 | 890 nM |
| O=C(Nc1ccc2c(c1)CCNCC2)c1ccc(-c2ccc(Cl)cc2)cc1 | 810 nM |
| Cc1ccc2[nH]c(-c3ccc(C(=O)NC4CCN(Cc5ccccc5)CC4)cc3)nc2c1C | 730 nM |
| COc1ccccc1N1CCN(C(C(=O)NCc2ccc3c(c2)OCO3)c2ccc(C)cc2)CC1 (stereo not given) | 980 nM |
| O=c1cc(NCCCNC2CCc3c(Cl)cc(Cl)cc32)[nH]c2ccccc12 (stereo not given) | 930 nM |
| O=C(O[C@H]1CN[C@H](C#Cc2cc3ncnc(Nc4ccc5c(ccn5S(=O)(=O)c5cccs5)c4)c3s2)C1)N1CCOCC1 | 1100 nM |
| C=C[C@H]1CN2CC[C@H]1C[C@@H]2[C@@H](O)c1ccnc2ccc(OC)cc12 | 120 nM |
| O=C(NCc1cccc(F)c1)Nc1ccc(-c2cccc(-c3nc4ccc(F)cc4[nH]3)c2)cc1 | 770 nM |
| CC(C)(C)c1nn(-c2ccc(Cl)cc2)c2[nH]c(=O)c(CNCc3cccs3)cc12 | 760 nM |
| C[C@@H]1CN(c2cnn(Cc3cccc(NC(=O)Nc4ccc(-c5ccccc5)cc4)c3)c(=O)c2Cl)C[C@H](C)N1 | 340 nM |
| Fc1cc(Cl)ccc1Nc1ccnc2cc(I)ccc12 | 1130 nM |
| Cc1cc2nc(-c3ccc(C(=O)NCc4cccc(F)c4)cc3)[nH]c2cc1C | 960 nM |
| N#Cc1cc([N+](=O)[O-])ccc1-n1nc(-c2cccc(Cl)c2)n(Cc2ccco2)c1=S | 200 nM |
| Cc1c(F)cc(C(=O)NC2CC2)cc1-c1ccc2c(cnn2S(=O)(=O)c2cccs2)c1 | 860 nM |
| O=C(C=Cc1ccc(Cl)c(Cl)c1)NCCCCCN1CCCC(CCCNC(=O)[C@@H]2C[C@H]2c2ccccc2)C1 (stereo not given in full) | 1130 nM |
| COc1ccc(C2=CCN(c3ccc(Cl)c(Cl)c3)C2=O)cc1OCCN1CCCCC1 | 780 nM |
| COc1cc(COc2c(C)nc(N)nc2N)cc(OC)c1OC | 330 nM |
| COC(=O)c1ccc2nc(-c3ccc(/C=C/C(=O)NC4CCN(Cc5ccccc5)CC4)cc3)[nH]c2c1 | 710 nM |
| Cc1cccn2c(=O)c3cc(C(=O)NC(C)c4ccccc4)c(=N)n(CCc4ccccc4)c3nc12 (stereo not given) | 550 nM |
| CCc1nc(N)nc(N)c1CCCOc1ccccc1Cl | 100 nM |
| CN1CCN(CCc2ccc3nc(-c4csc(Cc5cc(Cl)ccc5OCc5ccccc5)n4)[nH]c3c2)CC1 | 750 nM |
